Where two headings read alike, the source gives them in different places.
Tested on: FRDA fibroblasts
Assay: Rescue of FRDA fibroblasts stressed by L-buthionine-(S,R)-sulfoximine (BSO), viability by Calcein AM fluorescence
Type: cell-based, human
Settings: for EC50: BSO-stressed (1 mM) FRDA fibroblasts GM04078
Experimental: An initial screen was performed to identify compounds effective for the amelioration of redox disorders. Test samples, 4 reference compounds (idebenone, decylubiquinone, Trolox and α-tocopherol acetate), and solvent controls were tested for their ability to rescue FRDA fibroblasts stressed by addition of L-buthionine-(S,R)-sulfoximine (BSO), as described in Jauslin et al., Hum. Mol. Genet. 11(24):3055 (2002), Jauslin et al., FASEB J. 17:1972-4 (2003), and International Patent Application WO 2004/003565. […] This specific BSO-mediated cell death can be prevented by administration of antioxidants or molecules involved in the antioxidant pathway, such as α-tocopherol, short chain quinones, selenium, or small molecule glutathione peroxidase mimetics. However, antioxidants differ in their potency, i.e. the concentration at which they are able to rescue BSO-stressed FRDA fibroblasts. With this assay EC50 concentrations of the test compounds were determined and compared to known reference antioxidants.
MEM (a medium enriched in amino acids and vitamins, catalog no. 1-31F24-I) and Medium 199 (M199, catalog no. 1-21F224) with Earle's Balanced Salts, without phenol red, were purchased from Bioconcept. Fetal Calf Serum was obtained from PAA Laboratories. Basic fibroblast growth factor and epidermal growth factor were purchased from PeproTech. Penicillin-streptomycin-glutamine mix, L-buthionine (S,R)-sulfoximine, (+)-α-tocopherol acetate, decylubiquinone, and insulin from bovine pancreas were purchased from Sigma. Trolox (6-hydroxy-2,5,7,8-tetramethylchromane-2-carboxylic acid) was obtained from Fluka. Idebenone was obtained from Chemo Iberica. Calcein AM was purchased from Molecular Probes. Cell culture medium was made by combining 125 ml M199 EBS, 50 ml Fetal Calf Serum, 100 U/ml penicillin, 100 μg/ml streptomycin, 2 mM glutamine, 10 μg/ml insulin, 10 ng/ml EGF, and 10 ng/ml bFGF; MEM EBS was added to make the volume up to 500 ml. A 10 mM BSO solution was prepared by dissolving 444 mg BSO in 200 ml of medium with subsequent filter-sterilization. During the course of the experiments, this solution was stored at +4° C. The cells were obtained from the Coriell Cell Repositories (Camden, N.J.; repository number GM04078) and grown in 10 cm tissue culture plates. Every third day, they were split at a 1:3 ratio.
The test samples were supplied in 1.5 ml glass vials. The compounds were diluted with DMSO, ethanol or PBS to result in a 5 mM stock solution. Once dissolved, they were stored at −20° C. Reference antioxidants (idebenone, decylubiquinone, α-tocopherol acetate and trolox) were dissolved in DMSO.
Test samples were screened according to the following protocol: A culture with FRDA fibroblasts was started from a 1 ml vial with approximately 500,000 cells stored in liquid nitrogen. Cells were propagated in 10 cm cell culture dishes by splitting every third day in a ratio of 1:3 until nine plates were available. Once confluent, fibroblasts were harvested. For 54 micro titer plates (96 well-MTP) a total of 14.3 million cells (passage eight) were re-suspended in 480 ml medium, corresponding to 100 μl medium with 3,000 cells/well. The remaining cells were distributed in 10 cm cell culture plates (500,000 cells/plate) for propagation. The plates were incubated overnight at 37° C. in a atmosphere with 95% humidity and 5% CO2 to allow attachment of the cells to the culture plate.
MTP medium (243 μl) was added to a well of the microtiter plate. The test compounds were unfrozen, and 7.5 μl of a 5 mM stock solution was dissolved in the well containing 243 μl medium, resulting in a 150 μM master solution. Serial dilutions from the master solution were made. The period between the single dilution steps was kept as short as possible (generally less than 1 second).
Plates were kept overnight in the cell culture incubator. The next day, 10 μl of a 10 mM BSO solution were added to the wells, resulting in a 1 mM final BSO concentration. […]

Compound	EC50 (average of three experiments, read-out: EC50 Average) [nM]	EC50 (first of three experiments, read-out: EC50 Value 1) [nM]	EC50 (second of three experiments, read-out: EC50 Value 2) [nM]	EC50 (third of three experiments, read-out: EC50 Value 3) [nM]	EC50 (Homo sapiens, average of three experiments, read-out: EC50 Average) [nM]	EC50 (Homo sapiens, first of three experiments, read-out: EC50 Value 1) [nM]	EC50 (Homo sapiens, second of three experiments, read-out: EC50 Value 2) [nM]	EC50 fold lower than alpha-D-tocopherol (human cell culture model of FRDA, relative to alpha-D-tocopherol)	EC50 fold lower than idebenone (human cell culture models of FRDA, relative to idebenone)
CC(=O)Oc1c(C)c(C)c2c(c1C)CC[C@@](C)(CCC[C@H](C)CCC[C@H](C)CCCC(C)C)O2 [α-tocopherol acetate, (+)-α-tocopherol acetate, reference compound]	300	400	150	350	–	–	–	–	–
CC1=C(C)C(=O)C(CC[C@](C)(O)CCC[C@H](C)CCC[C@H](C)CCCC(C)C)=C(C)C1=O [α-tocopherol quinone, 2-[(3R,7R,11R)-3-hydroxy-3,7,11,15-tetramethylhexadecyl]-3,5,6-trimethyl-2,5-cyclohexadiene-1,4-dione]	–	–	–	–	0.0014	0.001	0.003	10^4 fold	10^5 fold
